Experimental data reported in patent US8618355B2, “Aromatic prenyltransferase from hop” (priority 2008, dated 2013).
Like-named read-outs stand apart in the source and are kept apart here.

Assays:
HIPT1 [1] = biological target: T1, HIPT1 (Humulus lupulus, UniProt E5RP65, INS53SN/R152W); assay: Substrate specificity of HIPT1 prenyltransferase activity (14C-DMAPP, radioHPLC); assay type: biochemical; parameters: were designed to amplify the open reading frame (ORF) of the prenlyltransferase gene; N-terminal 6xHis and TEV site from the pFastBacHT C vector (own knowledge of the vector); made in house; host or cells: Spodoptera frugiperda (Sf9) insect cells, baculovirus (Bac-to-Bac); microsomal preparation, not purified; details: aromatic acceptor substrates
T1 sequence (E5RP65 other isoform, or with tags, fused parts or gaps INS53SN/R152W): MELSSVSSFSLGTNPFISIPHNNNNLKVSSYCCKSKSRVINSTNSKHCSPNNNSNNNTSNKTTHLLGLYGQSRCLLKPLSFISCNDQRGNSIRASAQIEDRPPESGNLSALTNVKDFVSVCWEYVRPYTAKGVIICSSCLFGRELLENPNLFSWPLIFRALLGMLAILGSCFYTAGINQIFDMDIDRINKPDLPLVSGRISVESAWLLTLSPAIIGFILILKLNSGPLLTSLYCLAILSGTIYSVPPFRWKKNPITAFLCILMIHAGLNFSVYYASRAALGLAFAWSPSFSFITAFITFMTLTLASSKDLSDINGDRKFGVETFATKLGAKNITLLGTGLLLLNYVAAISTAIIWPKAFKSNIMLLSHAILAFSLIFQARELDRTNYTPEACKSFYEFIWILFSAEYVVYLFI
Experimental: Referring to FIG. 9A, prenyltransferase activity of HIPT1 on various substrates was measured using ^14C-DMAPP and thirteen aromatic acceptor substrates. Prenylated products were detected and quantified using radioHPLC. Error bars are SD (n=3). Referring to FIG. 9B, prenyltransferase activity of HIPT1 was measured with different prenyl diphosphate donors and the three major aromatic acceptor substrates, PIBP, PIVP and chalconaringenin. Prenylated products were quantified using HPLC with UV detection. Abbreviations: PIBP, phlorisobutyrophenone, PIVP, phlorisovalerophenone; DMAPP, dimethylallyl diphosphate; IPP, isopentenyl diphosphate; GPP, geranyl diphosphate; GGPP, geranylgeranyl diphosphate. Error bars are SD (n=3).

HIPT1 [2] = biological target: T1, HIPT1; assay type: biochemical; parameters: were designed to amplify the open reading frame (ORF) of the prenlyltransferase gene; N-terminal 6xHis and TEV site from the pFastBacHT C vector (own knowledge of the vector); made in house; host or cells: Spodoptera frugiperda (Sf9) insect cells, baculovirus (Bac-to-Bac); microsomal preparation, not purified; details: mean ± SD (n = 3), read-out: Km Substrate
Experimental: (§1) HIPT1 enzyme was assayed with phlorisobutyryphenone (PIBP), phlorisovalerophenone (PIVP) and chalconaringenin. Microsomal preparations from Example 2 were used in a 100 μl enzyme assay containing 100 mM Tris-HCl pH 7.0, 10 mM MgCl2, 0.5 mM aromatic substrate (PIBP, PIVP or chalconaringenin), 0.5 mM dimethylallyldiphosphate (DMAPP) and 20 μl of microsomes from insect cells expressing recombinant HIPT1. The assays were incubated at 30° C. for 120 min, the reactions stopped by addition of 5 μl 6N HCl, the reaction products extracted with 200 μl ethyl acetate and dried. The dried products were resuspended in 100 μl of methanol and analyzed by reversed-phase HPLC (solvent A: 0.1% TFA in water, solvent B: acetonitrile; 0-10 min, 40% B to 50% B; 10-20 min, 50% B to 100% B; flow rate 1 ml/min).

HIPT1 [3] = biological target: T1, HIPT1; assay: HIPT1 enzyme assay with aromatic substrate and DMAPP, products analysed by HPLC and LC-MS; assay type: biochemical; parameters: were designed to amplify the open reading frame (ORF) of the prenlyltransferase gene; N-terminal 6xHis and TEV site from the pFastBacHT C vector (own knowledge of the vector); made in house; host or cells: Spodoptera frugiperda (Sf9) insect cells, baculovirus (Bac-to-Bac); microsomal preparation, not purified; details: 0.5 mM aromatic substrate, 0.5 mM DMAPP, 30° C., 120 min, pH 7.0
Experimental: as §1
Abbreviations: PIBP is phlorisobutyrophenone, PIVP is phlorisovalerophenone, DMAPP is dimethylallyl diphosphate.

HIPT1 [4] = biological target: T1, HIPT1; details: presence of EDTA

| Structure (SMILES) | Acceptance as substrate of HIPT1 (HIPT1 [1]) | Km (HIPT1 [2]; acceptor substrate) [µM] | Prenylation by HIPT1 (product formed) (HIPT1 [3]) | also measured |
| --- | --- | --- | --- | --- |
| CC(C)=CCc1c(O)cc(O)c(C(=O)C(C)C)c1O [prenyl-PIBP] | does prenylate prenyl-PIBP to form diprenyl-PIBP | – | – | – |
| CC(C)C(=O)c1c(O)cc(O)cc1O [PIBP, phlorisobutyryphenone] | – | 10.2 ± 0.55 | forming prenyl PIBP | – |
| Cc1cc(O)cc(O)c1 [orcinol] | can accept | – | – | – |
| CC(C)=CCOP(=O)(O)OP(=O)(O)O [DMAPP, dimethylallyldiphosphate] | – | – | – | Km (HIPT1 [2]; prenyl donor, determined with PIVP as acceptor substrate): 16.8 ± 2.35 µM |
| O=C(/C=C/c1ccc(O)cc1)c1c(O)cc(O)cc1O [Chalconaringenin, chalconaringenin] | – | 196 ± 24.8 | forming desmethylxanthohumol | – |
| Oc1ccc(C=Cc2cc(O)cc(O)c2)cc1 [resveratrol] | can accept | – | – | – |
| O=C(O)CN(CCN(CC(=O)O)CC(=O)O)CC(=O)O [EDTA] | – | – | – | Effect on prenyltransferase activity of HIPT1 (HIPT1 [4]): completely inhibited |
| O=C(/C=C/c1ccc(O)cc1)c1ccc(O)cc1O [isoliquiritigenin] | can accept | – | – | – |
| CC(C)CC(=O)c1c(O)cc(O)cc1O [PIVP, phlorisovalerophenone] | – | 4.95 ± 0.25 | forming prenyl PIVP | – |
